The supplement of paper PMC10011410
± gives the standard deviation of the averaged measurements.

Tests used:
U-2 OS [1] = assay: AUC of culture confluence over time (live-cell imaging) (AUC (confluence % x time)); higher = more confluent culture (less growth inhibition)
Description: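 Live-cell Incucyte imaging of U-2 OS cells in F-12K medium. Compounds were tested mostly at 5, 10 and 20 uM, and cells were imaged every 4 h for up to 60 h. Value is the area under the curve of phase-contrast confluence over time.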

U-2 OS [2] = assay: cell painting activity score (Mahalanobis distance from DMSO wells); higher = stronger morphological phenotype; settings: 24 h
Description: (§1)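 Cell painting in U-2 OS cells (384-well, about 1,500 cells per well), compound exposure 24 h, usually six 2-fold concentrations from 20 to 0.625 uM (some compounds higher or lower). Relative cell count is the cell number per well relative to DMSO wells. Activity score is the Mahalanobis distance of the morphological profile from DMSO control wells. Mean of four technical replicate plates.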

U-2 OS [3] = assay: relative cell count vs DMSO (cell painting) (fraction of DMSO control); higher = more cells remaining (less cytotoxic); settings: 24 h
Description: as §1

Row | Structure (SMILES) | AUC of culture confluence over time (U-2 OS [1]; 5 µM) | AUC of culture confluence over time (U-2 OS [1]; 10 µM) | AUC of culture confluence over time (U-2 OS [1]; 20 µM) | cell painting activity score (U-2 OS [2]; 0.625 µM) | cell painting activity score (U-2 OS [2]; 1.25 µM) | cell painting activity score (U-2 OS [2]; 2.5 µM) | cell painting activity score (U-2 OS [2]; 5 µM) | cell painting activity score (U-2 OS [2]; 10 µM) | cell painting activity score (U-2 OS [2]; 20 µM) | relative cell count (U-2 OS [3]; 0.625 µM) | relative cell count (U-2 OS [3]; 1.25 µM) | relative cell count (U-2 OS [3]; 2.5 µM) | relative cell count (U-2 OS [3]; 5 µM) | relative cell count (U-2 OS [3]; 10 µM) | relative cell count (U-2 OS [3]; 20 µM) | AUC of culture confluence over time (U-2 OS [1]; 1.25 µM) | cell painting activity score (U-2 OS [2]; 0.019532 µM) | cell painting activity score (U-2 OS [2]; 0.07812 µM) | cell painting activity score (U-2 OS [2]; 0.3124 µM) | relative cell count (U-2 OS [3]; 0.019532 µM) | relative cell count (U-2 OS [3]; 0.07812 µM) | relative cell count (U-2 OS [3]; 0.3124 µM)
1 | CC[C@H](C)[C@@H]1NC(=O)CNC(=O)[C@@H]2Cc3c([nH]c4cc(O)ccc34)S(=O)C[C@H](NC(=O)CNC1=O)C(=O)N[C@@H](CC(=O)O)C(=O)N1C[C@H](O)C[C@H]1C(=O)N[C@@H]([C@@H](C)[C@@H](O)CO)C(=O)N2 (stereo not given in full) | 26.4 | 24.6 | 16.3 | 5.47 | 4.77 | 6.25 | 4.42 | 11.2 | 29.1 | 0.979 | 0.941 | 0.975 | 0.992 | 0.958 | 0.862 | – | – | – | – | – | – | –
2 | CCCCc1c(-c2ccc(OC)cc2)[nH]c2nccnc12 | 53.2 | 47.6 | 52.7 | 4.99 | 3.58 | 6.25 | 6.12 | 8.25 | 8.09 | 1.01 | 0.952 | 0.968 | 0.949 | 0.927 | 0.624 | – | – | – | – | – | – | –
3 | CCc1c2c(nc3ccc(OC(=O)N4CCC(N5CCCCC5)CC4)cc13)-c1cc3c(c(=O)n1C2)COC(=O)[C@]3(O)CC.Cl | 31.5 | 25.7 | 22 | 7.03 | 8.8 | 9.65 | 10.7 | 11 | 11.2 | 0.924 | 0.783 | 0.705 | 0.614 | 0.554 | 0.566 | – | – | – | – | – | – | –
4 | CC(C)=C[C@@H]1CO[C@]23C[C@]4(CO2)[C@H](CC[C@@H]2[C@@]5(C)CC[C@H](O[C@@H]6OC[C@H](O)[C@H](O[C@@H]7O[C@H](CO)[C@@H](O)[C@H](O)[C@H]7O)[C@H]6O[C@@H]6O[C@@H](CO)[C@H](O)[C@H]6O)C(C)(C)[C@@H]5CC[C@]24C)[C@H]3[C@@]1(C)O | 44.4 | 15.8 | 23.9 | 4.86 | 4.19 | 6.77 | 9.86 | 22.5 | 29.1 | 0.956 | 0.977 | 1.02 | 0.762 | 0.393 | 0.0257 | – | – | – | – | – | – | –
5 | O=c1c(O)c(-c2ccc(O)c(O)c2)oc2cc(O)cc(O)c12 | 46.5 | 53.6 | 50.6 | 4.42 | 3.56 | 5.15 | 6.18 | 8.67 | 12.4 | 0.954 | 0.982 | 0.939 | 0.962 | 0.892 | 0.814 | – | – | – | – | – | – | –
6 | CC[C@@]1(O)C(=O)OCc2c1cc1n(c2=O)Cc2cc3ccccc3nc2-1 | 19.7 | – | 21.5 | – | 12.4 ± 0.52 | – | 13.7 ± 0.32 | – | 15.5 ± 0.56 | – | 0.476 ± 0.059 | – | 0.379 ± 0.037 | – | 0.351 ± 0.028 | 19.5 | 7.71 ± 3.2 | 9.83 ± 1.2 | 10.3 ± 0.47 | 0.694 ± 0.18 | 0.516 ± 0.026 | 0.503 ± 0.036
7 | O=c1c(O)c(-c2ccc(O)c(O)c2)oc2cc(O)ccc12 | 52.8 | 52 | 47.7 | 5.44 | 5.04 | 4.93 | 4.23 | 4.83 | 7.46 | 0.969 | 0.938 | 0.943 | 0.939 | 0.932 | 0.945 | – | – | – | – | – | – | –
8 | O=C(O)C[C@@H]1C(=O)O[C@H]2[C@@H]3OC(=O)c4cc(O)c(O)c(O)c4-c4c(cc(O)c(O)c4O)C(=O)OC[C@H]2O[C@@H](OC(=O)c2cc(O)c(O)c(O)c2)[C@@H]3OC(=O)c2cc(O)c(O)c3c2[C@H]1[C@H](O)C(=O)O3 | 45.6 | 45.4 | 41.8 | 3.42 | 3.94 | 4.16 | 5.6 | 5.3 | 8.86 | 1.01 | 1 | 1.06 | 1.04 | 1.05 | 1.05 | – | – | – | – | – | – | –
9 | C[C@]12O[C@H](C[C@]1(O)CO)n1c3ccccc3c3c4c(c5c6ccccc6n2c5c31)CNC4=O | 25.9 | 23.6 | 23.8 | 20.6 | 21.4 | 22.3 | 23.1 | 23.1 | 22.8 | 0.654 | 0.525 | 0.521 | 0.516 | 0.453 | 0.138 | – | – | – | – | – | – | –
10 | Cc1nc(Nc2ncc(C(=O)Nc3c(C)cccc3Cl)s2)cc(N2CCN(CCO)CC2)n1 | 32.5 | 29 | 22.6 | 11.4 | 12.6 | 12.3 | 12.2 | 13.1 | 12.8 | 0.973 | 0.883 | 0.89 | 0.894 | 0.806 | 0.839 | – | – | – | – | – | – | –
11 | COc1cc(OC)c2ccccc2c1C=C1C(=O)NC(=S)NC1=O | 13.1 | 12.8 | 13.6 | 13.6 | 16.2 | 16.1 | 16.1 | 18 | 17.8 | 0.833 | 0.687 | 0.472 | 0.428 | 0.377 | 0.379 | – | – | – | – | – | – | –
12 | CC(=O)N[C@@H](CCCCNC(=O)CSCCNC(=O)CCNC(=O)[C@H](O)C(C)(C)COP(=O)(O)OP(=O)(O)OC[C@H]1O[C@@H](n2cnc3c(N)ncnc32)[C@H](O)[C@@H]1OP(=O)(O)O)C(N)=O.O=C(O)C(F)(F)F | 44.2 | 44.8 | 42.4 | 3.32 | 5.02 | 3.77 | 3.73 | 4.57 | 4.45 | 0.896 | 0.879 | 0.923 | 0.883 | 0.875 | 0.903 | – | – | – | – | – | – | –
13 | COc1cc(=O)oc(/C=C/C=C/C=C/C(C)=C/[C@]2(C)O[C@H](C)[C@](C)(O)[C@H]2O)c1C | 34.4 | 30.9 | 27.2 | 4.29 | 4.47 | 6.44 | 11.5 | 12.8 | 12.1 | 0.993 | 0.982 | 0.972 | 0.928 | 0.826 | 0.758 | – | – | – | – | – | – | –
14 | O=C(O)CCCc1ccc(N(CCCl)CCCl)cc1 | 50.2 | 44.6 | 36.8 | 4.38 | 5.9 | 8 | 10.4 | 10.8 | 12.6 | 0.967 | 0.951 | 0.908 | 0.881 | 0.837 | 0.784 | – | – | – | – | – | – | –
15 | O.O=P1(N(CCCl)CCCl)NCCCO1 (stereo not given) | 43.1 | 41.1 | 44.2 | 3.69 | 3.83 | 3.34 | 3.43 | 4.46 | 9.23 | 0.967 | 0.999 | 0.965 | 0.985 | 0.993 | 0.941 | – | – | – | – | – | – | –
16 | Cc1[nH]c2ccccc2c1CCNCc1ccc(/C=C/C(=O)NO)cc1 | 16.7 | 19.5 | 21 | 16.3 | 16 | 15.9 | 15.3 | 13.8 | 16.2 | 0.494 | 0.472 | 0.445 | 0.466 | 0.474 | 0.419 | – | – | – | – | – | – | –
17 | Cc1cnc(CNC(=O)c2c(=O)c3ccc(N4CCCN(C)CC4)nc3n3c2sc2ccccc23)cn1 | 33.9 | 34.5 | 35 | 9.34 | 10.9 | 10.3 | 10.4 | 11.4 | 11 | 0.709 | 0.607 | 0.591 | 0.572 | 0.559 | 0.548 | – | – | – | – | – | – | –
18 | NC(=O)c1ccc(I)c([N+](=O)[O-])c1 | 56.5 | 53.5 | 50.1 | 3.13 | 3.07 | 2.86 | 3.68 | 3.09 | 3.55 | 1.01 | 1.07 | 1.05 | 1.04 | 1.06 | 1.07 | – | – | – | – | – | – | –
19 | C[n+]1ccc(-c2cc[n+](CCCCCCCCCC[P+](c3ccccc3)(c3ccccc3)c3ccccc3)cc2)cc1.[I-].[I-].[I-] | 45.2 | 40 | 37.1 | 3.81 | 4.65 | 5.16 | 5.04 | 3.72 | 4.7 | 0.908 | 0.96 | 1 | 1.01 | 0.965 | 0.969 | – | – | – | – | – | – | –
